According to ChEMBL document CHEMBL1129656, “A study of the active site of influenza virus sialidase: an approach to the rational design of novel anti-influenza drugs” (J Med Chem, 1996):

Experiment: Compound was tested for the inhibition of influenza virus sialidase using 2'-(4-methylumbelliferyl)-N-acetylneuraminic acid substrate
Parameters: species or system unidentified influenza virus

Structure (SMILES) | Ki [µM]
CC(=O)NC1C(O)C=C(C(=O)O)OC1[C@H](O)[C@H](O)CO (stereo not given in full) | 4
CC(=O)N[C@@H]1C(NC(=N)N)C=C(C(=O)O)OC1[C@H](O)[C@H](O)CO (stereo not given in full) | 3e-05
CC(=O)NC1C(O)CC(O)(C(=O)O)OC1[C@H](O)[C@H](O)CO (stereo not given in full) | 1000
CC(=O)N[C@H]1[C@H]([C@H](O)[C@H](O)CO)OC(C(=O)O)=C[C@H]1N | 0.04
CC(=O)N[C@@H]1C(N)C=C(C(=O)O)O[C@H]1[C@H](O)[C@H](O)CO (single isomer, unassigned) | 0.3
